From the supplement of paper PMC13380429

Key:
Settings in all cases: 72 h
Caco-2 [1] = experiment: cell viability relative to DMSO; higher = less toxic
Calu-3 [2] = experiment: as above
Vero E6 [3] = experiment: as above
HepG2 [4] = experiment: as above
Caco-2 [5] = experiment: drug sensitivity score (DSS) for viability; higher = more toxic; extreme values may be limits of the assay
Calu-3 [6] = experiment: as above
Vero E6 [7] = experiment: as above
HepG2 [8] = experiment: as above
Caco-2 [9] = experiment: relative viability EC50 (midpoint between 100% and the lowest measured viability); higher = less toxic
Calu-3 [10] = experiment: as above
Vero E6 [11] = experiment: as above
HepG2 [12] = experiment: as above
U2OS [13] = experiment: cell viability relative to DMSO; higher = less toxic
U2OS [14] = experiment: drug sensitivity score (DSS) for viability; higher = more toxic; extreme values may be limits of the assay
U2OS [15] = experiment: relative viability EC50 (midpoint between 100% and the lowest measured viability); higher = less toxic

SMILES | cell viability (Caco-2 [1]; 1 nM) [%] | cell viability (Caco-2 [1]; 10 nM) [%] | cell viability (Caco-2 [1]; 100 nM) [%] | cell viability (Caco-2 [1]; 1000 nM) [%] | cell viability (Caco-2 [1]; 10000 nM) [%] | cell viability (Calu-3 [2]; 1 nM) [%] | cell viability (Calu-3 [2]; 10 nM) [%] | cell viability (Calu-3 [2]; 100 nM) [%] | cell viability (Calu-3 [2]; 1000 nM) [%] | cell viability (Calu-3 [2]; 10000 nM) [%] | cell viability (Vero E6 [3]; 1 nM) [%] | cell viability (Vero E6 [3]; 10 nM) [%] | cell viability (Vero E6 [3]; 100 nM) [%] | cell viability (Vero E6 [3]; 1000 nM) [%] | cell viability (Vero E6 [3]; 10000 nM) [%] | cell viability (HepG2 [4]; 1 nM) [%] | cell viability (HepG2 [4]; 10 nM) [%] | cell viability (HepG2 [4]; 100 nM) [%] | cell viability (HepG2 [4]; 1000 nM) [%] | cell viability (HepG2 [4]; 10000 nM) [%] | drug sensitivity score (Caco-2 [5]) | drug sensitivity score (Calu-3 [6]) | drug sensitivity score (Vero E6 [7]) | drug sensitivity score (HepG2 [8]) | relative viability EC50 (Caco-2 [9]) [µM] | relative viability EC50 (Calu-3 [10]) [µM] | relative viability EC50 (Vero E6 [11]) [µM] | relative viability EC50 (HepG2 [12]) [µM] | cell viability (U2OS [13]; 1 nM) [%] | cell viability (U2OS [13]; 10 nM) [%] | cell viability (U2OS [13]; 100 nM) [%] | cell viability (U2OS [13]; 1000 nM) [%] | cell viability (U2OS [13]; 10000 nM) [%] | drug sensitivity score (U2OS [14]) | relative viability EC50 (U2OS [15]) [µM]
COc1ccc(CC(=O)NC(/N=C(\NC#N)Nc2cccc3ncccc23)C(C)(C)C)cc1OC (stereo not drawn) | 101 | 97.8 | 94.1 | 101 | 99.7 | 113 | 96.5 | 95.6 | 109 | 103 | 103 | 97 | 91.1 | 96.9 | 99.8 | 107 | 95.7 | 93.8 | 97.5 | 106 | 0 | 0 | 0 | 0 | > 10 | > 10 | > 10 | > 10 | – | – | – | – | – | – | –
C[C@@H]1COC(Nc2ccc3ncnc(Nc4ccc(OCc5nccs5)c(Cl)c4)c3c2)=N1 | 95.7 | 104 | 97.2 | 81.6 | 67.7 | 103 | 107 | 81.8 | 41.3 | 36.1 | 107 | 99.5 | 94 | 70.7 | 67 | 100 | 100 | 94.8 | 92.3 | 98.8 | 3.4 | 13.2 | 5.6 | 0 | – | 0.184 | – | > 10 | 97.8 | 96.7 | 98.9 | 93.3 | 90 | 0 | > 10
Cc1c(C2CCN(CCc3ccccc3)CC2)noc1-c1ccc(Cl)cc1 | 103 | 106 | 99.9 | 98.8 | 68.6 | 99.9 | 104 | 101 | 108 | 80.9 | 105 | 99.4 | 103 | 98.3 | 90.3 | 102 | 107 | 96.5 | 95.8 | 71.9 | 1.5 | 0.3 | 0 | 1.9 | – | > 10 | > 10 | – | 102 | 98.7 | 101 | 97.3 | 96.6 | 0 | > 10
Cc1cc(CCC[C@H](CC(=O)NO)C(=O)N[C@H](C(=O)N[C@H](C)c2ccccc2)C(C)(C)C)ccc1-c1ccccc1 | 105 | 95.2 | 110 | 99.4 | 51.4 | 101 | 90.9 | 91.8 | 94.8 | 77.5 | 103 | 104 | 99.9 | 97 | 67.5 | 110 | 116 | 99.6 | 106 | 35.1 | 2.6 | 1.1 | 1.9 | 3.1 | – | > 10 | – | 3.6 | 99.1 | 102 | 97.3 | 99.6 | 46.7 | 2.9 | 3.12
O=C(Cc1ccc(Cl)c(Cl)c1)N1CCCC[C@@H]1CN1CCCC1 | 85.2 | 97 | 104 | 95.5 | 102 | 100 | 105 | 92.1 | 109 | 103 | 102 | 104 | 99.5 | 105 | 98.7 | 95.8 | 93.5 | 99.1 | 89.8 | 83.5 | 0 | 0 | 0 | 0.4 | > 10 | > 10 | > 10 | > 10 | – | – | – | – | – | – | –
Oc1cc2c(cc1O)C(c1ccccc1)CNCC2 (stereo not drawn) | – | – | – | – | – | 77.4 | 103 | 78.6 | 99.6 | 78 | 104 | 98.2 | 103 | 96.9 | 106 | 110 | 104 | 108 | 91.8 | 107 | – | 2.2 | 0 | 0 | – | > 10 | > 10 | > 10 | 102 | 102 | 97.3 | 104 | 99 | 0 | > 10
Cc1c(C)c2c(c(C)c1O)CCC(C)(C)O2 [APC-100] | 90.4 | 118 | 100 | 131 | 71.8 | 96.6 | 95.1 | 100 | 104 | 100 | 93.5 | 85.4 | 99.1 | 88.1 | 102 | 120 | 88.6 | 120 | 95.7 | 99.2 | 0.6 | 0 | 0 | 0 | – | > 10 | > 10 | > 10 | 91.4 | 100 | 94.3 | 100 | 102 | 0 | > 10
O=C(NOCCO)c1ccc2cncn2c1Nc1ccc(I)cc1F [GDC-0623] | 93.5 | 79.5 | 64.6 | 61.8 | 58.2 | 102 | 78.5 | 52.4 | 36.4 | 31.1 | 98.4 | 81.9 | 55.5 | 49.9 | 49.3 | 91.8 | 51.2 | 23.7 | 19.6 | 12.4 | 13.8 | 19.7 | 16.8 | 31.7 | – | 0.034 | 0.017 | 0.0088 | 95.1 | 92.6 | 93.4 | 62 | 25.5 | 8.6 | 0.916
COc1cc2nc(C3CC3)nc(N3CCN(c4ccccc4OC)CC3)c2cc1OC [ML314] | 100 | 91.5 | 97.9 | 94.8 | 59 | 96.6 | 101 | 102 | 92.7 | 78.3 | 96.9 | 109 | 95 | 87.6 | 62.9 | 102 | 92.4 | 100 | 91.6 | 54.1 | 2.9 | 1.6 | 3.1 | 3.8 | – | > 10 | – | – | 96.5 | 97.4 | 91.5 | 98.2 | 87.1 | 0 | > 10
C=C(C)[C@@H]1CC[C@]2(CO)CC[C@]3(C)[C@H](CC[C@@H]4[C@@]5(C)CC[C@H](O)C(C)(C)[C@@H]5CC[C@]43C)[C@@H]12 [NSC-4644] | 101 | 73.1 | 75.8 | 74.1 | 91.1 | 103 | 103 | 102 | 106 | 90.3 | 84.1 | 95.4 | 96.3 | 92 | 106 | 112 | 99.1 | 96.1 | 81.2 | 89.8 | 10.8 | 0 | 0 | 2.9 | – | > 10 | > 10 | > 10 | 96.6 | 95.6 | 103 | 92 | 98.4 | 0 | > 10
O=C(c1c(F)ccc(NS(=O)(=O)N2CC[C@@H](F)C2)c1F)c1c[nH]c2ncc(-c3cnc(C4CC4)nc3)cc12 [PLX8394] | 102 | 99.2 | 94.4 | 91.7 | 71.8 | 105 | 105 | 83.6 | 104 | 114 | 102 | 96.6 | 104 | 98.8 | 113 | 91 | 90.5 | 106 | 101 | 79.1 | 1.9 | 0 | 0 | 0.6 | – | > 10 | > 10 | > 10 | 96 | 105 | 104 | 107 | 93.3 | 0 | > 10
CC(C)=CCC[C@](C)(O)[C@H]1CC[C@]2(C)[C@@H]1[C@H](O)C[C@@H]1[C@@]3(C)CC[C@H](O)C(C)(C)[C@@H]3CC[C@]12C [S-111] | 106 | 98.3 | 103 | 104 | 99.8 | 95.5 | 95.4 | 89.1 | 97.2 | 93 | 104 | 102 | 98.3 | 105 | 100 | – | – | – | – | – | 0 | 0 | 0 | – | > 10 | > 10 | > 10 | – | – | – | – | – | – | – | –
N[C@@H](CSC(c1ccccc1)(c1ccccc1)c1ccccc1)C(=O)O [S-trityl-L-cysteine] | 96.6 | 100 | 85.9 | 98.4 | 61.4 | 105 | 104 | 94.2 | 92.5 | 84.6 | 98.5 | 100 | 102 | 99.2 | 45 | 83.6 | 93 | 104 | 100 | 40.5 | 2.1 | 0.5 | 3 | 3.2 | – | > 10 | 3.07 | 3.21 | 101 | 104 | 94.6 | 101 | 48.5 | 2.7 | 3.25
CN(C)C(=O)C(=O)c1cn(C)c2cc(Cl)c(C(=O)N3CCC(Cc4ccc(F)cc4)CC3)cc12 [SX-011] | 93.9 | 96.3 | 98.3 | 93.5 | 70.4 | 94.6 | 108 | 116 | 97.3 | 91.2 | 110 | 94.6 | 100 | 93.2 | 89.2 | 112 | 102 | 104 | 102 | 86.5 | 2.3 | 0 | 0.1 | 0.1 | – | > 10 | > 10 | > 10 | 99.1 | 100 | 97.1 | 102 | 91.2 | 0 | > 10
CCOc1cc(N2CCC(O)CC2)ccc1Nc1ncc2c(n1)N(C)c1ccccc1C(=O)N2C [XMD8-92] | 96.1 | 93 | 90 | 89.8 | 84.6 | 90.2 | 112 | 98.1 | 109 | 77.5 | 99.7 | 93.2 | 99.7 | 93.5 | 41.2 | 101 | 99.4 | 102 | 104 | 74.4 | 0.9 | 0.5 | 4.3 | 0.8 | > 10 | > 10 | 2.26 | – | 92.7 | 105 | 93.6 | 94.6 | 73.3 | 1.8 | –
